Reference: patent US9956144B2, “Process for particle processing of active pharmaceutical ingredients” (HOVIONE INTER LIMITED, priority 2010, dated 2018)

Key:
Assay type in all cases: physicochemical
[1] = Particle size distribution of the powder produced by high pressure cavitation (HPC) and spray drying; conditions: dry powder after HPC followed by spray drying
From the text: The suspension may be passed through a high pressure cavitation apparatus several times until the desired particle size and size distribution is achieved. […] The recirculation may, for example, be performed from 2-30 times (or cycles) depending upon the API. Preferred cycle ranges include from 5 to 25 and 15 to 25. […] As will be clear to those in the art, span is defined by the ratio ((Dv90−Dv10)/Dv50), with Dv being the diameter value at which a defined percentage of the particles (eg 10%, 50% or 90% in the equation) have a diameter equal to or less than the Dv value.

[2] = XRPD of the isolated product (polymorphic form after HPC and spray drying); conditions: after HPC followed by spray drying
[3] = Amorphous content determined by dynamic vapour sorption (DVS); conditions: after HPC followed by spray drying
[4] = Detection of the anhydrous form by near infrared spectroscopy; conditions: after HPC followed by spray drying
[5] = TGA of the isolated product; conditions: after HPC followed by spray drying

Structure (SMILES) | Dv10 [1] | Dv50 [1] | Dv90 [1] | span ((Dv90−Dv10)/Dv50) [1] | XRPD of the product isolated (polymorphic form retained) [2] | amorphous content [3] | anhydrous form [4] | TGA value [5]
C[N+]1(C)[C@@H]2C[C@@H](OC(=O)C(O)(c3cccs3)c3cccs3)C[C@H]1[C@@H]1O[C@@H]12 [Tiotropium bromide] | 0.74 μm | 2.90 μm | 5.58 μm | 1.7 |  |  |  | 
OCc1cc(C(O)CNCCCCCCOCCCCc2ccccc2)ccc1O (stereo not drawn) [Salmeterol xinafoate] | 0.33 μm | 1.37 μm | 3.09 μm | 2.0 | substantially the same as the starting material |  |  | 
CCC(=O)O[C@]1(C(=O)SCF)[C@H](C)C[C@H]2[C@@H]3C[C@H](F)C4=CC(=O)C=C[C@]4(C)[C@@]3(F)[C@@H](O)C[C@@]21C [Fluticasone propionate] | 1.20 μm | 2.45 μm | 4.68 μm | 1.4 | substantially the same as the starting material |  |  | 
C[C@@H]1C[C@H]2[C@@H]3CCC4=CC(=O)C=C[C@]4(C)[C@@]3(Cl)[C@@H](O)C[C@]2(C)[C@@]1(OC(=O)c1ccco1)C(=O)CCl [Mometasone furoate monohydrate] | 1.91 μm | 3.97 μm | 7.47 μm | 1.4 | substantially the same as claimed in U.S. Pat. No. 6,180,781B1 | below 1.1% | not detected | 3.0%
C[C@@H]1C[C@H]2[C@@H]3C[C@H](F)C4=CC(=O)C=C[C@]4(C)[C@@]3(F)[C@@H](O)C[C@]2(C)[C@@]1(OC(=O)c1ccco1)C(=O)SCF [Fluticasone furoate] | 0.89 μm | 1.95 μm | 3.78 μm | 1.5 | substantially the same as the starting material |  |  | 
